Experimental data: patent publication US9527832B2, “Substituted condensed pyrimidine compounds” (GRÜNENTHAL GMBH, priority 2013, dated 2016)
Several values for one entry are separate records, joined by “and”; a condition that tells them apart may be missing. Equal entries are not always repeated.

Assays:
[1] = target: T1, human PDE4B1 (Homo sapiens, UniProt Q07343); assay: cAMP HTRF assay to determine the activity of hPDE4B1; assay type: biochemical; conditions: for inhibition at 1 µM: Percentage inhibition of PDE4B at 1 μM test concentration; for IC50: dose response measurements with eight concentrations, reported as ranges, read-out: IC50
T1 construct: host or cells: Sf9 cells
T1 sequence (Q07343 whole entry): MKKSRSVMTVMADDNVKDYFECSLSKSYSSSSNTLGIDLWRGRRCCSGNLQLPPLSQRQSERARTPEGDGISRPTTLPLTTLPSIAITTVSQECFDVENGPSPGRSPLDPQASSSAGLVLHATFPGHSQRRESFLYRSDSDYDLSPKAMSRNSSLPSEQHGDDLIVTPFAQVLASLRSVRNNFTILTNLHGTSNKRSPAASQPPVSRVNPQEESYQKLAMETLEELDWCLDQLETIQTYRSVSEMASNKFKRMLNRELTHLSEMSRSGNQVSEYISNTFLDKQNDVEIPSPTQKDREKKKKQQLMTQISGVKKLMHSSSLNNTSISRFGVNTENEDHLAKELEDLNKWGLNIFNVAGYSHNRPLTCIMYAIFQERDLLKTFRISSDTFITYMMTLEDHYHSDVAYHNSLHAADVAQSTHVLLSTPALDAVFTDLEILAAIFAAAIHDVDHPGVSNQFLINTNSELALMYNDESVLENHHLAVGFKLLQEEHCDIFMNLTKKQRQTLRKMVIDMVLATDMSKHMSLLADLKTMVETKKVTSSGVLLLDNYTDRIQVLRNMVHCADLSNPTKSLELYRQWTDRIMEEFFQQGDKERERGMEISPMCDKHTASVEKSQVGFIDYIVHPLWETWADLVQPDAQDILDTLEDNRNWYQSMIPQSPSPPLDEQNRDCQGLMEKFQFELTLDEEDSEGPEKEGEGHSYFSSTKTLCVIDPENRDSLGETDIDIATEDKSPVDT
Method in brief: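 Sf9-expressed recombinant human PDE4B1 (4.8 U) in Tris-HCl/MgCl2/DTT/Tween 20 buffer pH 7.8, with cAMP at 40 nM final, 30 min at room temperature. Reaction stopped with IBMX 1 mM; remaining cAMP detected by HTRF (665/620 nm ratio). IC50 from eight-point dose-response, n=2.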

Row | inhibition at 1 µM [1] | IC50 [1] | melting point | Structure (SMILES)
1 | 96% | < 100 nM | 192 to 195 °C | COc1ccc(-c2nc3c(c(N4CCc5cc(CC(=O)O)ccc54)n2)CS(=O)(=O)C3)cc1F [Compound No. 1-10, 2-(1-(2-(3-Fluoro-4-methoxy-phenyl)-6,6-dioxo-5,7-dihydro-thieno[3,4-d]pyrimidin-4-yl)-2,3-dihydro-1H-indol-5-yl)acetic acid]
2 | 100% | < 100 nM | 245 to 247 °C | COc1ccc(-c2nc3c(c(N4CCc5cc(CC(=O)O)ccc54)n2)CS(=O)(=O)C3)cc1Cl [Compound No. 1-11, 2-(1-(2-(3-Chloro-4-methoxy-phenyl)-6,6-dioxo-5,7-dihydro-thieno[3,4-d]pyrimidin-4-yl)-2,3-dihydro-1H-indol-5-yl)acetic acid]
3 | 108% | < 100 nM | 239 to 243 °C | COc1ccc(-c2nc3c(c(N4CCc5cc(CC(=O)O)ccc54)n2)CS(=O)(=O)C3)cc1 [Compound No. 1-12, 2-(1-(2-(4-Methoxyphenyl)-6,6-dioxo-5,7-dihydro-thieno[3,4-d]pyrimidin-4-yl)-2,3-dihydro-1H-indol-5-yl)acetic acid]
4 |  |  | 225 to 232 °C | COc1ccc(-c2nc3c(c(N4CCc5c(OCC(=O)N(C)C)cccc54)n2)CS(=O)(=O)C3)cc1 [Compound No. 2-2, 2-((1-(2-(4-Methoxyphenyl)-6,6-dioxo-5,7-dihydro-thieno[3,4-d]pyrimidin-4-yl)-2,3-dihydro-1H-indol-4-yl)oxy)-N,N-dimethyl-acetamide]
5 |  |  | 237 to 245 °C | CN(C)C(=O)COc1cccc2c1CCN2c1nc(-c2cccc(F)c2)nc2c1CS(=O)(=O)C2 [Compound No. 2-4, 2-((1-(2-(3-Fluorophenyl)-6,6-dioxo-5,7-dihydro-thieno[3,4-d]pyrimidin-4-yl)-2,3-dihydro-1H-indol-4-yl)oxy)-N,N-dimethyl-acetamide]
6 |  |  | 222 to 226 °C | CN(C)C(=O)COc1cccc2c1CCN2c1nc(-c2cccc(Cl)c2)nc2c1CS(=O)(=O)C2 [Compound No. 2-6, 2-((1-(2-(3-Chlorophenyl)-6,6-dioxo-5,7-dihydro-thieno[3,4-d]pyrimidin-4-yl)-2,3-dihydro-1H-indol-4-yl)oxy)-N,N-dimethyl-acetamide]
7 |  |  | 231 to 233 °C | COc1ccc(-c2nc3c(c(N4CCc5c(OCC(=O)N(C)C)cccc54)n2)CS(=O)(=O)C3)cc1F [Compound No. 2-10, 2-((1-(2-(3-Fluoro-4-methoxy-phenyl)-6,6-dioxo-5,7-dihydro-thieno[3,4-d]pyrimidin-4-yl)-2,3-dihydro-1H-indol-4-yl)oxy)-N,N-dimethyl-acetamide]
8 |  |  | 212 to 217 °C | CN(C)C(=O)COc1cccc2c1CCN2c1nc(-c2ccc(F)c(F)c2)nc2c1CS(=O)(=O)C2 [Compound No. 2-12, 2-((1-(2-(3,4-Difluoro-phenyl)-6,6-dioxo-5,7-dihydro-thieno[3,4-d]pyrimidin-4-yl)-2,3-dihydro-1H-indol-4-yl)oxy)-N,N-dimethyl-acetamide]
9 | 95% | < 100 nM |  | Cc1ncc(-c2nc3c(c(N4CCc5ccc(OCC(=O)N(C)C)cc54)n2)C[S+]([O-])C3)s1 (stereo not shown) [Compound No. 2-140, N,N-Dimethyl-2-((1-(2-(2-methylthiazol-5-yl)-6-oxido-5,7-dihydrothieno[3,4-d]pyrimidin-4-yl)indolin-6-yl)oxy)acetamide]
10 | 98% | < 100 nM |  | COc1ccc(-c2nc3c(c(N4CCc5ccc(OCC(=O)N(C)C)cc54)n2)C[S+]([O-])C3)nc1 (stereo not shown) [Compound No. 2-141, 2-((1-(2-(5-Methoxypyridin-2-yl)-6-oxido-5,7-dihydrothieno[3,4-d]pyrimidin-4-yl)indolin-6-yl)oxy)-N,N-dimethylacetamide]
11 | 61% | 100 to 1000 nM | 209 to 212 °C | O=C(COc1ccc2c(c1)N(c1nc(-c3ccc(Cl)s3)nc3c1CCC3)CC2)N1CCCC1 [Compound No. 2-142, 2-((1-(2-(5-Chlorothiophen-2-yl)-6,7-dihydro-5H-cyclopenta[d]pyrimidin-4-yl)indolin-6-yl)oxy)-1-(pyrrolidin-1-yl)ethanone]
12 | 87% | 100 to 1000 nM and < 100 nM |  | COc1ccc(-c2nc3c(c(N4CCc5ccc(OCC(=O)N(C)C)cc54)n2)CS(=O)(=O)C3)nc1 [Compound No. 2-143, 2-((1-(2-(5-Methoxypyridin-2-yl)-6,6-dioxido-5,7-dihydrothieno[3,4-d]pyrimidin-4-yl)indolin-6-yl)oxy)-N,N-dimethylacetamide]
13 |  | 100 to 1000 nM |  | N#CCOc1ccc2c(c1)N(c1nc(-c3ccc(Cl)s3)nc3c1CS(=O)(=O)C3)CC2 [Compound No. 3-1, 2-((1-(2-(5-Chlorothiophen-2-yl)-6,6-dioxido-5,7-dihydrothieno[3,4-d]pyrimidin-4-yl)indolin-6-yl)oxy)acetonitrile]
14 |  | 100 to 1000 nM |  | CN(C)CCOc1ccc2c(c1)N(c1nc(-c3ccc(Cl)s3)nc3c1CS(=O)(=O)C3)CC2 [Compound No. 3-3, 2-(5-Chlorothiophen-2-yl)-4-(6-(2-(dimethylamino)ethoxy)indolin-1-yl)-5,7-dihydrothieno[3,4-d]pyrimidine 6,6-dioxide]
15 |  | 100 to 1000 nM |  | CCNC(=O)Cc1ccc2c(c1)CCN2c1nc(-c2ccc(Cl)s2)nc2c1CS(=O)(=O)C2 [Compound No. 3-4, 2-(1-(2-(5-Chlorothiophen-2-yl)-6,6-dioxido-5,7-dihydrothieno[3,4-d]pyrimidin-4-yl)indolin-5-yl)-N-ethylacetamide]
16 |  | 100 to 1000 nM |  | CNC(=O)Cc1ccc2c(c1)CCN2c1nc(-c2ccc(Cl)s2)nc2c1CS(=O)(=O)C2 [Compound No. 3-5, 2-(1-(2-(5-Chlorothiophen-2-yl)-6,6-dioxido-5,7-dihydrothieno[3,4-d]pyrimidin-4-yl)indolin-5-yl)-N-methylacetamide]
17 | 103% | < 100 nM |  | NC(=O)Cc1ccc2c(c1)CCN2c1nc(-c2ccc(Cl)s2)nc2c1CS(=O)(=O)C2 [Compound No. 3-6, 2-(1-(2-(5-Chlorothiophen-2-yl)-6,6-dioxido-5,7-dihydrothieno[3,4-d]pyrimidin-4-yl)indolin-5-yl)acetamide]
18 | 48% |  |  | CN(C)CCOc1ccc2c(c1)N(c1nc(-c3ccc(Cl)s3)nc3c1CCC3)CC2 [Compound No. 3-7, 2-((1-(2-(5-Chlorothiophen-2-yl)-6,7-dihydro-5H-cyclopenta[d]-pyrimidin-4-yl)indolin-6-yl)oxy)-N,N-dimethylethanamine]
19 | 32% |  |  | CN(C)C(=O)Cc1ccc2c(c1)CCN2c1nc(-c2ccc(Cl)s2)nc2c1CS(=O)(=O)C2 [Compound No. 3-8, 2-(1-(2-(5-Chlorothiophen-2-yl)-6,6-dioxido-5,7-dihydrothieno[3,4-d]pyrimidin-4-yl)indolin-5-yl)-N,N-dimethylacetamide]
